Target: T1, human S1P1 receptor (Homo sapiens, UniProt P21453)
T1 construct: expressed in transfected cells; membranes used
Test: GTP γ35S binding assay for S1P1 activity
Format: biochemical
Conditions: Activity potency: S1P1 receptor from GTP γ35S; membranes; test concentration range 0.08 to 5,000 nM
Experimental: Compounds were tested for S1P1 activity using the GTP γ^35S binding assay. These compounds may be assessed for their ability to activate or block activation of the human S1P1 receptor in cells stably expressing the S1P1 receptor.
[…] binding was measured in the medium containing (mM) HEPES 25, pH 7.4, MgCl2 10, NaCl 100, dithitothreitol 0.5, digitonin 0.003%, 0.2 nM GTP γ^35S, and 5 μg membrane protein in a volume of 150 μl. Test compounds were included in the concentration range from 0.08 to 5,000 nM unless indicated otherwise. Membranes were incubated with 100 μM 5′-adenylylimmidodiphosphate for 30 min, and subsequently with 10 μM GDP for 10 min on ice.
Drug solutions and membrane were mixed, and then reactions were initiated by adding GTP γ^35S and continued for 30 min at 25° C. Reaction mixtures were filtered over Whatman GF/B filters under vacuum, and washed three times with 3 mL of ice-cold buffer (HEPES 25, pH7.4, MgCl2 10 and NaCl 100). Filters were dried and mixed with scintillant, and counted for ^35S activity using a β-counter. Agonist-induced GTP γ^35S binding was obtained by subtracting that in the absence of agonist. Binding data were analyzed using a non-linear regression method. In case of antagonist assay, the reaction mixture contained 10 nM S1P in the presence of test antagonist at concentrations ranging from 0.08 to 5000 nM.

T1 sequence (P21453 whole entry): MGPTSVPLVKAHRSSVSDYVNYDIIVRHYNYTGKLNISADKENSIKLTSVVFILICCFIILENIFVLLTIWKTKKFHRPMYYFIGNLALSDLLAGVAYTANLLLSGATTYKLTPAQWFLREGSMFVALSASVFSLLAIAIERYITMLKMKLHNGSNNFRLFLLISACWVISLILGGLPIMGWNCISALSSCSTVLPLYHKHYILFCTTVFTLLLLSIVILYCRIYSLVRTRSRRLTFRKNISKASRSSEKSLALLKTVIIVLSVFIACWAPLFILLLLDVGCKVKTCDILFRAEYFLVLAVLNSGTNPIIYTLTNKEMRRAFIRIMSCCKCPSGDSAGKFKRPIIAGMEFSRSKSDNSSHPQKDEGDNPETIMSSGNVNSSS

Q: With `O=C(O)C1CN(Cc2ccc(CCSc3ncc(-c4ccccc4)n3-c3ccccc3)cc2)C1` [Compound 2, 1-(4-{2-[(1,5-diphenyl-1H-imidazol-2-yl)thio]ethyl}benzyl)azetidine-3-carboxylic acid] as the compound, how does the EC50 read?
A: 5600 nM

Q: Which EC50 does the source give for `O=C(O)C1CN(Cc2ccc(CC/N=c3\scc(-c4ccccc4)n3-c3ccccc3)cc2)C1` [Compound 1, 1-[4-(2-{[(2Z)-3,4-diphenyl-1,3-thiazol-2(3H)-ylidene]amino}ethyl)benzyl]azetidine-3-carboxylic acid] here?
A: 297 nM

From patent US20140235613A1, “SUBSTITUTED DIARYL AZETIDINE DERIVATIVES AS SPHINGOSINE RECEPTOR MODULATORS” (Allergan, Inc., priority 2013, published 2014)
